{
  "source": "patent US20100190719A1",
  "about": "“PEPTIDES AS ANTIMICROBIAL AGENTS TOWARDS CAMPYLOBACTER SPP” (priority 2007, published 2010)",
  "key": {"C. jejuni strain C338 [1]": {"tested_on": "C. jejuni strain C338", "assay": "microdilution susceptibility test, inhibition of growth of C. jejuni in vitro", "type": "cell-based, Campylobacter jejuni", "details": "for % inhibition of growth: C. jejuni strain C338, phage-displayed peptide", "experimental": "Representative affinity-selected phage peptides were tested for their ability to inhibit the growth of C. jejuni strains in vitro. Each phage clone was amplified by E. coli infection and twice purified by PEG precipitation and resuspended in TBS buffer (pH 7.5). Phage concentrations were calculated as […] using the ultraviolet (UV) absorbance measurements on a spectrophotometer (Smith & Scott, 1993). […] In brief: each of the C. jejuni strains was resuspended to an OD595 of 0.2 in Nutrient Broth and then diluted to 10^4-10^5 CFU/mL in Nutrient Broth containing Campylobacter growth supplement. […] A microaerophilic environment was provided by GasPak E2 Campy Pouches (BD Biosciences). After 24-48 h at 37° C. without shaking, the optical densities of the bacterial cultures were measured at OD595 nm in a plate reader (Victor2, Perkin Elmer).\n(§1) The number of viable bacteria in the 96 well plates was determined by performing colony counts on the diluted inoculum and plating onto blood agar plates. Colony counts on blood agar plates were also used to determine the initial inoculum of bacteria used in the assay. A Gram Stain Kit was used to check the morphology of C. jejuni after incubation with the phage peptides."}, "C. jejuni strain C338 [2]": {"tested_on": "C. jejuni strain C338", "assay": "morphology of C. jejuni after incubation with phage peptides (Gram stain)", "type": "cell-based, Campylobacter jejuni", "details": "normal morphology is spiral-shaped", "experimental": "The morphology has changed to thread-shaped. • B. Strain C338 incubated with unselected phage library showing the normal spiral-shaped morphology • C.\nas §1"}},
  "data": [
    {"sequence": "FLIDSPLASIGPTSM (f88-4/15-mer peptide phage-display library) [CP3/3]", "values": [
      {"measurement": "% inhibition of growth", "setting": "C. jejuni strain C338 [1]", "result": 99.3, "unit": "%"}
    ]},
    {"sequence": "TCNLSDYTLPRARVL (f88-4/15-mer peptide phage-display library) [BT3/4]", "values": [
      {"measurement": "% inhibition of growth", "setting": "C. jejuni strain C338 [1]", "result": 60, "unit": "%"},
      {"measurement": "inhibition of growth of C. jejuni in vitro (in words)", "setting": "C. jejuni strain C338 [1]; bacterial concentration of 1×10^4 CFU/mL", "result": "inhibited the growth"}
    ]},
    {"sequence": "TGSGLYLHQMVYLYQ (f88-4/15-mer peptide phage-display library) [CP3/2]", "values": [
      {"measurement": "% inhibition of growth", "setting": "C. jejuni strain C338 [1]", "result": 92, "unit": "%"},
      {"measurement": "inhibition of growth of C. jejuni", "setting": "C. jejuni strain C338 [1]; bacterial inoculum 1.6×10^5 CFU/mL", "result": 87, "unit": "%"}
    ]},
    {"sequence": "GRFLIRVTSSPLGPD (f88-4/15-mer peptide phage-display library) [CP3/1]", "values": [
      {"measurement": "% inhibition of growth", "setting": "C. jejuni strain C338 [1]", "result": 96.7, "unit": "%"},
      {"measurement": "inhibition of growth of C. jejuni", "setting": "C. jejuni strain C338 [1]; initial bacterial inoculum 2.8×10^4 CFU/mL", "result": 97, "unit": "%"},
      {"measurement": "inhibition of growth of C. jejuni", "setting": "C. jejuni strain C338 [1]; initial bacterial inoculum 2.8×10^4 CFU/mL as printed (second value for CP3/1)", "result": 89, "unit": "%"},
      {"measurement": "morphology of C. jejuni after incubation with phage-displayed peptide", "setting": "C. jejuni strain C338 [2]", "result": "thread-shaped"}
    ]},
    {"sequence": "VPESIHKASLVCYRF (f88-4/15-mer peptide phage-display library) [BP3/5]", "values": [
      {"measurement": "morphology of C. jejuni after incubation with phage-displayed peptide", "setting": "C. jejuni strain C338 [2]", "result": "coccoid shaped"}
    ]}
  ]
}
